Laboratory results reported in ChEMBL document CHEMBL1126408, “CP-70,030 and CP-75,998: The first non-peptide antagonists of bombesin and gastrin releasing peptide” (Bioorg Med Chem Lett, 1992).
Activity calls are given as the source filed them. No cut-off for these calls is given here.

Experiments:
Rattus norvegicus [1] = organism: Rattus norvegicus; assay: Agonistic activity up to a conc 30 uM measured as elevation of inositol phosphate production in absence of bombesin in rat pituitary GH3 cells; NA is no measurable agonist activity; format: functional, cell-based
[2] = molecular target: Gastrin-releasing peptide receptor (Homo sapiens) (UniProt P30550); assay: Compound up to a conc of 32 uM was tested for displacement of radiolabeled GRP from its receptors on bombesin-responsive human SCLC cell line N592; […]
Chain of Gastrin-releasing peptide receptor (Homo sapiens) (P30550 whole entry, looked up): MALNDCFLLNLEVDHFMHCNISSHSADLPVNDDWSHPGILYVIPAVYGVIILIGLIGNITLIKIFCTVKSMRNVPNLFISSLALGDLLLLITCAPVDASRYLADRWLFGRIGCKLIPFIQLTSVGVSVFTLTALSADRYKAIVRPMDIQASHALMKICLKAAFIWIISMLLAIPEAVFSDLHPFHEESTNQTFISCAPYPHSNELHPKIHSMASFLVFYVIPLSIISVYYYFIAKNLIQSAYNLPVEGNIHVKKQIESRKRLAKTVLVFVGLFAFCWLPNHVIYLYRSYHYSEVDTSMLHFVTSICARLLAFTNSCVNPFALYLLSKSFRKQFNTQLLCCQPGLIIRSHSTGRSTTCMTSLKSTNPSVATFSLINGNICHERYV

[3] = molecular target: Gastrin-releasing peptide receptor (Rattus norvegicus, UniProt P52500); assay: Compound was evaluated for displacement of radiolabeled [I-125]GRP from rat brain receptor; 1.5-3 uM
Chain of Gastrin-releasing peptide receptor (P52500 whole entry): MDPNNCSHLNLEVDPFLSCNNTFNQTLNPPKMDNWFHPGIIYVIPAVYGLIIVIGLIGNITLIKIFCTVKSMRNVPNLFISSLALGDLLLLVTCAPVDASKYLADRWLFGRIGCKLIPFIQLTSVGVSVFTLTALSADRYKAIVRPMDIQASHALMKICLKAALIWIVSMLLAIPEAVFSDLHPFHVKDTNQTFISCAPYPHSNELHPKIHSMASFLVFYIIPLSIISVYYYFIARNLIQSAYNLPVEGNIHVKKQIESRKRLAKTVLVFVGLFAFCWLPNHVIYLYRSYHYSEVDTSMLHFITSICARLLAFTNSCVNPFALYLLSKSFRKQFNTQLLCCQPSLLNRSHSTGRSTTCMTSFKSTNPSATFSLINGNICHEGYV

Rattus norvegicus [4] = organism: Rattus norvegicus; assay: Antagonistic activity as a measure of bombesin-induced phosphoinositide turnover in rat pituitary GH3 cells; 1.5-3 uM; format: functional, cell-based

Compound | Activity (Rattus norvegicus [1]) | Activity [2] | IC50 [3] [nM] | IC50 (Rattus norvegicus [4]) [nM]
CCN1C(=O)/C(=C/c2cc(C(C)(C)C)c(O)c(C(C)(C)C)c2)c2cc(OCc3ccccc3C(=O)O)ccc21 | inactive | inactive | 1500 | 1500
O=C1NC(=O)C2(N1)C(=O)N(Cc1ccc(Cl)c(Cl)c1)c1ncc(Br)cc12 (stereo not drawn) | inactive | inactive | 1500 | 1500
